Converted amounts (≈) assume the structure as drawn.
How the values were obtained:
Staphylococcus aureus [1] = test: Antibacterial activity against Staphylococcus aureus ATCC 25923 by NCCLS two-fold dilution method; type: functional
Staphylococcus aureus [2] = test: Antibacterial activity against methicillin-resistant Staphylococcus aureus ATCC 700699 by NCCLS two-fold dilution method; type: functional
Staphylococcus aureus [3] = test: Antibacterial activity against Staphylococcus aureus ATCC 29213 by NCCLS two-fold dilution method; type: functional
Staphylococcus aureus [4] = test: Antibacterial activity against gentamicin-resistant Staphylococcus aureus ATCC 33592 by NCCLS two-fold dilution method; type: functional
Staphylococcus aureus [5] = test: Antibacterial activity against Staphylococcus aureus ATCC 25923 after 24 hrs by spectrophotometric analysis; type: functional, organism-based; details: for IC50: read-out: IC50
Staphylococcus aureus [6] = test: Antibacterial activity against methicillin-resistant Staphylococcus aureus ATCC 700699 after 24 hrs by spectrophotometric analysis; type: functional, organism-based; details: for IC50: read-out: IC50
Staphylococcus aureus [7] = test: Antibacterial activity against Staphylococcus aureus ATCC 29213 after 24 hrs by spectrophotometric analysis; type: functional, organism-based; details: for IC50: read-out: IC50
Staphylococcus aureus [8] = test: Antibacterial activity against gentamicin-resistant Staphylococcus aureus ATCC 33592 after 24 hrs by spectrophotometric analysis; type: functional, organism-based; details: for IC50: read-out: IC50
Escherichia coli [9] = test: Antibacterial activity against Escherichia coli by NCCLS two-fold dilution method; type: functional
Klebsiella pneumoniae [10] = test: Antibacterial activity against Klebsiella pneumoniae by NCCLS two-fold dilution method; type: functional
Escherichia coli [11] = test: Antibacterial activity against Escherichia coli after 24 hrs by spectrophotometric analysis; type: functional, organism-based; details: for IC50: read-out: IC50
Klebsiella pneumoniae [12] = test: Antibacterial activity against Klebsiella pneumoniae after 24 hrs by spectrophotometric analysis; type: functional, organism-based; details: for IC50: read-out: IC50
L929 [13] = test: Cytotoxicity against mouse L929 cells assessed as cell viability up to MIC 0.39 ug/ml after 24 hrs by MTT assay; type: cell-based; details: l929, 24 h
L929 [14] = test: Cytotoxicity against mouse L929 cells assessed as cell morphological changes at 12.5 to 50 ug/ml after 24 hrs by giemsa staining based phase contrast microscopy; details: l929, 24 h
L929 [15] = test: Cytotoxicity against mouse L929 cells assessed as cell viability up to MIC 0.78 ug/ml after 24 hrs by MTT assay; type: cell-based; details: l929, 24 h
[16] = Staphylococcus aureus, ATCC 25923
[17] = Staphylococcus aureus, ATCC 25923, 24 h
[18] = Staphylococcus aureus, ATCC 700699, 24 h
[19] = Staphylococcus aureus, ATCC 29213, 24 h
[20] = Staphylococcus aureus, ATCC 33592, 24 h

Compound	-logMIC (Staphylococcus aureus [1])	MIC (Staphylococcus aureus [1]; [16]) [µg/mL]	MIC (Staphylococcus aureus [2]) [µg/mL]	MIC (Staphylococcus aureus [3]) [µg/mL]	MIC (Staphylococcus aureus [4]) [µg/mL]	MIC (Staphylococcus aureus [5]; [17]) [µg/mL]	IC50 (Staphylococcus aureus [5]; [17]) [µg/mL]	MIC (Staphylococcus aureus [6]; [18]) [µg/mL]	IC50 (Staphylococcus aureus [6]; [18]) [µg/mL]	MIC (Staphylococcus aureus [7]; [19]) [µg/mL]	IC50 (Staphylococcus aureus [7]; [19]) [µg/mL]	MIC (Staphylococcus aureus [8]; [20]) [µg/mL]	IC50 (Staphylococcus aureus [8]; [20]) [µg/mL]	MIC (Escherichia coli [9]) [µg/mL]	MIC (Klebsiella pneumoniae [10]) [µg/mL]	MIC (Escherichia coli [11]; Escherichia coli, 24 h) [µg/mL]	IC50 (Escherichia coli [11]; Escherichia coli, 24 h) [µg/mL]	MIC (Klebsiella pneumoniae [12]; Klebsiella pneumoniae, 24 h) [µg/mL]	IC50 (Klebsiella pneumoniae [12]; Klebsiella pneumoniae, 24 h) [µg/mL]	Activity (L929 [13])	also measured
O=C(O)c1cn(Cc2ccc(C(F)(F)F)cc2)c2cc(N3CCN(C(c4ccco4)c4nnnn4C4CCCCC4)CC3)c(F)cc2c1=O (configuration not stated)	5.939	0.78 (≈ 1.15 µM)	50 (≈ 73.6 µM)	1.56 (≈ 2.3 µM)	0.78 (≈ 1.15 µM)	0.52 (≈ 0.765 µM)	0.2 (≈ 0.294 µM)	50 (≈ 73.6 µM)	> 50	0.82 (≈ 1.21 µM)	0.75 (≈ 1.1 µM)	0.78 (≈ 1.15 µM)	0.4 (≈ 0.589 µM)	6.25 (≈ 9.2 µM)	6.25 (≈ 9.2 µM)	4.2 (≈ 6.18 µM)	2.9 (≈ 4.27 µM)	3.4 (≈ 5 µM)	1.7 (≈ 2.5 µM)	Non-toxic	
CCn1cc(C(=O)O)c(=O)c2cc(F)c(N3CCN(C(c4ccc(F)cc4)c4nnnn4C(C)(C)C)CC3)cc21 (configuration not stated)	5.548	0.78 (≈ 1.41 µM)	12.5 (≈ 22.7 µM)	0.78 (≈ 1.41 µM)	0.78 (≈ 1.41 µM)	0.9 (≈ 1.63 µM)	0.3 (≈ 0.544 µM)	12.5 (≈ 22.7 µM)	10 (≈ 18.1 µM)	0.7 (≈ 1.27 µM)	0.2 (≈ 0.363 µM)	0.5 (≈ 0.906 µM)	0.2 (≈ 0.363 µM)							Non-toxic	
CCn1cc(C(=O)O)c(=O)c2cc(F)c(N3CCN(C(c4ccccc4)c4nnnn4C4CCCCC4)CC3)cc21 (configuration not stated)	5.554	1.56 (≈ 2.79 µM)	12.5 (≈ 22.3 µM)	3.12 (≈ 5.57 µM)	1.56 (≈ 2.79 µM)	0.8 (≈ 1.43 µM)	0.4 (≈ 0.715 µM)	11.6 (≈ 20.7 µM)	4.9 (≈ 8.76 µM)	1.5 (≈ 2.68 µM)	0.8 (≈ 1.43 µM)	0.78 (≈ 1.39 µM)	0.75 (≈ 1.34 µM)							Non-toxic	
CCn1cc(C(=O)O)c(=O)c2cc(F)c(N3CCN(C(c4ccco4)c4nnnn4C4CCCCC4)CC3)cc21 (configuration not stated)	5.847	0.78 (≈ 1.42 µM)	25 (≈ 45.5 µM)	1.56 (≈ 2.84 µM)	0.78 (≈ 1.42 µM)	0.45 (≈ 0.819 µM)	0.22 (≈ 0.4 µM)	8.2 (≈ 14.9 µM)	3.7 (≈ 6.73 µM)	1.1 (≈ 2 µM)	0.6 (≈ 1.09 µM)	0.88 (≈ 1.6 µM)	0.4 (≈ 0.728 µM)	12.5 (≈ 22.7 µM)	6.25 (≈ 11.4 µM)	11.6 (≈ 21.1 µM)	4.9 (≈ 8.92 µM)	5.2 (≈ 9.46 µM)	2.4 (≈ 4.37 µM)	Non-toxic	Activity (L929 [14]): Non-toxic
CCn1cc(C(=O)O)c(=O)c2cc(F)c(N3CCN(C(c4ccc(OC)c(OC)c4OC)c4nnnn4C4CCCCC4)CC3)cc21 (configuration not stated)	5.318	1.56 (≈ 2.4 µM)	25 (≈ 38.5 µM)	1.56 (≈ 2.4 µM)	1.56 (≈ 2.4 µM)	1.35 (≈ 2.08 µM)	0.37 (≈ 0.569 µM)	28.9 (≈ 44.5 µM)	14.6 (≈ 22.5 µM)	0.8 (≈ 1.23 µM)	0.7 (≈ 1.08 µM)	0.8 (≈ 1.23 µM)	0.7 (≈ 1.08 µM)							Non-toxic	Activity (L929 [14]): Non-toxic
CCn1cc(C(=O)O)c(=O)c2cc(F)c(N3CCN(C(c4ccccc4)c4nnnn4C(C)(C)C)CC3)cc21 (configuration not stated)	6.136	0.39 (≈ 0.731 µM)	25 (≈ 46.9 µM)	0.78 (≈ 1.46 µM)	0.39 (≈ 0.731 µM)	0.38 (≈ 0.712 µM)	0.37 (≈ 0.693 µM)	8.3 (≈ 15.6 µM)	3.8 (≈ 7.12 µM)	0.5 (≈ 0.937 µM)	0.2 (≈ 0.375 µM)	0.38 (≈ 0.712 µM)	0.34 (≈ 0.637 µM)							Non-toxic	
O=C(O)c1cn(C2CC2)c2cc(N3CCNCC3)c(F)cc2c1=O [CIPROFLOXACIN]		0.78 (≈ 2.35 µM)			0.19 (≈ 0.573 µM)	0.9 (≈ 2.72 µM)	0.3 (≈ 0.905 µM)	20.2 (≈ 61 µM)	16.7 (≈ 50.4 µM)	20.2 (≈ 61 µM)	16.7 (≈ 50.4 µM)	0.4 (≈ 1.21 µM)	0.2 (≈ 0.604 µM)		0.012 (≈ 0.0362 µM)			0.049 (≈ 0.148 µM)	0.02 (≈ 0.0604 µM)		
GENTAMICIN			> 50	> 50	> 50									1.56	1.56						MIC (Staphylococcus aureus [1]): 1.56 µg/mL; MIC (Staphylococcus aureus [5]): 2.1 µg/mL; MIC (Staphylococcus aureus [6]): > 50 µg/mL; MIC (Staphylococcus aureus [7]): > 50 µg/mL; MIC (Staphylococcus aureus [8]): > 50 µg/mL; MIC (Escherichia coli [11]): 2.1 µg/mL; MIC (Klebsiella pneumoniae [12]): 2.1 µg/mL
CCn1cc(C(=O)O)c(=O)c2cc(F)c(N3CCN(C(c4ccncc4)c4nnnn4C(C)(C)C)CC3)cc21 (configuration not stated)	5.534	1.56 (≈ 2.92 µM)	50 (≈ 93.5 µM)	1.56 (≈ 2.92 µM)	1.56 (≈ 2.92 µM)	0.9 (≈ 1.68 µM)	0.5 (≈ 0.935 µM)	50 (≈ 93.5 µM)	50 (≈ 93.5 µM)	0.9 (≈ 1.68 µM)	0.6 (≈ 1.12 µM)	0.7 (≈ 1.31 µM)	0.35 (≈ 0.655 µM)	25 (≈ 46.8 µM)	25 (≈ 46.8 µM)	27.7 (≈ 51.8 µM)	20.5 (≈ 38.3 µM)	26 (≈ 48.6 µM)	24 (≈ 44.9 µM)	Non-toxic	
CCn1cc(C(=O)O)c(=O)c2cc(F)c(N3CCN(C(c4ccncc4)c4nnnn4C4CCCCC4)CC3)cc21 (configuration not stated)	5.555	1.56 (≈ 2.78 µM)	50 (≈ 89.2 µM)	3.12 (≈ 5.57 µM)	3.12 (≈ 5.57 µM)	1.09 (≈ 1.94 µM)	0.37 (≈ 0.66 µM)	> 50	50 (≈ 89.2 µM)	1 (≈ 1.78 µM)	0.6 (≈ 1.07 µM)	0.6 (≈ 1.07 µM)	0.1 (≈ 0.178 µM)	6.25 (≈ 11.1 µM)	6.25 (≈ 11.1 µM)	4.2 (≈ 7.49 µM)	2.1 (≈ 3.75 µM)	6.3 (≈ 11.2 µM)	3.5 (≈ 6.24 µM)	Non-toxic	
CCn1cc(C(=O)O)c(=O)c2cc(F)c(N3CCN(C(c4cccc5ccccc45)c4nnnn4C(C)(C)C)CC3)cc21 (configuration not stated)	5.573	1.56 (≈ 2.67 µM)	6.25 (≈ 10.7 µM)	3.12 (≈ 5.35 µM)	0.78 (≈ 1.34 µM)	0.8 (≈ 1.37 µM)	0.7 (≈ 1.2 µM)	4.9 (≈ 8.4 µM)	3.5 (≈ 6 µM)	2.4 (≈ 4.11 µM)	0.2 (≈ 0.343 µM)	0.7 (≈ 1.2 µM)	0.2 (≈ 0.343 µM)							Non-toxic	
CCn1cc(C(=O)O)c(=O)c2cc(F)c(N3CCN(C(c4ccc(OC)c(OC)c4OC)c4nnnn4C(C)(C)C)CC3)cc21 (configuration not stated)	5.602	1.56 (≈ 2.5 µM)	50 (≈ 80.2 µM)	3.12 (≈ 5 µM)	3.12 (≈ 5 µM)	0.81 (≈ 1.3 µM)	0.4 (≈ 0.641 µM)	50 (≈ 80.2 µM)	50 (≈ 80.2 µM)	1.4 (≈ 2.24 µM)	0.8 (≈ 1.28 µM)	0.87 (≈ 1.39 µM)	0.75 (≈ 1.2 µM)	50 (≈ 80.2 µM)	> 50	46 (≈ 73.8 µM)	29 (≈ 46.5 µM)	> 50	> 50	Non-toxic	
CCn1cc(C(=O)O)c(=O)c2cc(F)c(N3CCN(C(c4ccco4)c4nnnn4C(C)(C)C)CC3)cc21 (configuration not stated)		0.78 (≈ 1.49 µM)	50 (≈ 95.5 µM)	0.78 (≈ 1.49 µM)	0.78 (≈ 1.49 µM)	0.4 (≈ 0.764 µM)	0.3 (≈ 0.573 µM)	46.9 (≈ 89.6 µM)	24.6 (≈ 47 µM)	0.6 (≈ 1.15 µM)	0.2 (≈ 0.382 µM)	0.5 (≈ 0.955 µM)	0.2 (≈ 0.382 µM)	6.25 (≈ 11.9 µM)	12.5 (≈ 23.9 µM)	4.2 (≈ 8.02 µM)	2.9 (≈ 5.54 µM)	10.1 (≈ 19.3 µM)	5.3 (≈ 10.1 µM)	Non-toxic	Activity (L929 [15]): Non-toxic; Activity (L929 [14]): Non-toxic
CC(C)(C)n1nnnc1C(c1ccc(F)cc1)N1CCN(c2cc3c(cc2F)c(=O)c(C(=O)O)cn3Cc2ccc(C(F)(F)F)cc2)CC1 (configuration not stated)	5.037	6.25 (≈ 9.17 µM)	25 (≈ 36.7 µM)	3.12 (≈ 4.58 µM)	6.25 (≈ 9.17 µM)	3.1 (≈ 4.55 µM)	1 (≈ 1.47 µM)	19.8 (≈ 29 µM)	8.09 (≈ 11.9 µM)	1.6 (≈ 2.35 µM)	1.4 (≈ 2.05 µM)	2.5 (≈ 3.67 µM)	0.5 (≈ 0.733 µM)							Non-toxic	

Source: ChEMBL document CHEMBL3232987, “Investigation of Ugi-4CC derived 1H-tetrazol-5-yl-(aryl) methyl piperazinyl-6-fluoro-4-oxo-1,4-dihydroquinoline-3-carboxylic acid: synthesis, biology and 3D-QSAR analysis” (Eur J Med Chem, 2014)
